In patent US20260334439A1, “BCAT2 INHIBITORS” (Agios Pharmaceuticals, Inc., priority 2023, published 2026):
pIC50: −log10 of the molar value.

Target: T1, BCAT2 (Homo sapiens, UniProt O15382)
T1 sequence (O15382 28-392): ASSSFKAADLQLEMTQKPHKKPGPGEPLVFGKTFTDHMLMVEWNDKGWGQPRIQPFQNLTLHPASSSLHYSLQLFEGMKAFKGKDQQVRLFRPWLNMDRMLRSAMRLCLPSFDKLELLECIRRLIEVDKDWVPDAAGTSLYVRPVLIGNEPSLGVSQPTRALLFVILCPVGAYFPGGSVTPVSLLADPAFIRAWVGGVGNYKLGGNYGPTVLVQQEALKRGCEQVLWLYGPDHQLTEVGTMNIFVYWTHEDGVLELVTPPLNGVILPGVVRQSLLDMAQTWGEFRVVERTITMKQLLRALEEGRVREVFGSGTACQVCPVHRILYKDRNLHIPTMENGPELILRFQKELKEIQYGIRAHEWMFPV
Assay: BCAT2 in vitro enzyme inhibition assay (hBCAT2, glutamate dehydrogenase/diaphorase/resazurin coupled fluorescence read)
Format: biochemical
Settings: hBCAT2, 1 h preincubation at 25° C., one hour reaction; average where tested multiple times
Experimental: • 2×Buffer: 200 mM Tris pH 8.0, 300 mM NaCl, 0.1% BSA • 1.67×hBCAT2 Enzyme Mix: 0.33 μg/mL hBCAT2, 1× Buffer • 2.5×Substrate Mix: 460 µM L-leucine, 420 µM α-KetoGlutarate, 10 U/mL glutamate dehydrogenase, 10 mM NAD, […] diaphorase, […] Resazurin
BCAT2 enzyme stock solution was diluted to prepare a 1.67×hBCAT2 Enzyme Mix. 1 μL of test compound was first added to the reaction wells followed by 30 μL of 1.67×hBCAT2 Enzyme Mix and incubated at room temperature (25° C.) for one hour. Meanwhile the Substrate Mix was prepared. The reaction was initiated by the addition of 20 μL of the 2.5×Substrate Mix, bringing the final reaction mix of all components to 1×. Reactions were quenched after one hour by the addition of 25 μL of 6% SDS and reaction progress was measured via fluorescence read (Ex 540/Em 590).
Test compounds were prepared at 50×final concentration in DMSO, 1 to 3 dilutions were made for 10 points. The compounds were added to the assay as a 1 to 50 dilution (1 μL in 50 μL) to yield a top assay final concentration of 100 μM, decreasing 3-fold for 10 points. Each compound dilution series test also included an assay max (1 μL DMSO Added in lieu of compound, Full Reaction Components Included) and Min (1 μL DMSO Added in lieu of compound, 30 μl of 1.67×hBCAT2 Enzyme Mix replated by 30 μL of 1×Buffer). All tests were performed in technical duplicate.
Where a compound was tested multiple times, the average value of the tests is reported.

Structure (SMILES)	pIC50
Nc1ccc(Cl)cc1C(=O)N[C@H]1CCC[C@@H](n2c(-c3ccccc3F)nc3cnc(-c4nc[nH]n4)cc32)C1 [Example 41, 2-amino-5-chloro-N-((1S,3R)-3-(2-(2-fluorophenyl)-6-(1H-1,2,4-triazol-3-yl)-1H-imidazo[4,5-c]pyridin-1-yl)cyclohexyl)benzamide]	6.30 to 7.00
COc1ccc(Cl)cc1C(=O)N[C@H]1CCC[C@@H](n2c(-c3ccccc3C#N)nc3cnc(-c4nc[nH]n4)cc32)[C@@H]1O [Example 108, 5-chloro-N-((1S,2R,3R)-3-(2-(2-cyanophenyl)-6-(1H-1,2,4-triazol-3-yl)-1H-imidazo[4,5-c]pyridin-1-yl)-2-hydroxycyclohexyl)-2-methoxybenzamide]	> 7.00
CN1C[C@@H](NC(=O)c2cc(F)ccn2)C[C@@H](n2c(-c3ccccc3OCCO)nc3cnc(-c4ncccn4)cc32)C1 [Example 162, 4-fluoro-N-((3S,5R)-5-(2-(2-(2-hydroxyethoxy)phenyl)-6-(pyrimidin-2-yl)-1H-imidazo[4,5-c]pyridin-1-yl)-1-methylpiperidin-3-yl)picolinamide]	6.00 to 6.30
NC1CC(N2Cc3ccc(F)cc3C2=O)CC(n2c(-c3ccccc3F)nc3cnc(-c4nc[nH]n4)cc32)C1 (stereo not shown) [Example 196, 2-(3-amino-5-(2-(2-fluorophenyl)-6-(1H-1,2,4-triazol-3-yl)-1H-imidazo[4,5-c]pyridin-1-yl)cyclohexyl)-6-fluoroisoindolin-1-one]	> 7.00
O=C(N[C@H]1CCC[C@@H](n2c(-c3ccccc3OC(F)F)nc3cnc(-c4nc[nH]n4)cc32)C1)c1cc(Cl)ccc1OC(F)F [compound 51]	> 7.00
O=C1c2cc(Cl)ccc2OCCN1[C@H]1CCC[C@@H](n2c(-c3ccccc3F)nc3cnc(-c4nc[nH]n4)cc32)C1 [Example 216, 7-chloro-4-((1S,3R)-3-(2-(2-fluorophenyl)-6-(1H-1,2,4-triazol-3-yl)-1H-imidazo[4,5-c]pyridin-1-yl)cyclohexyl)-3,4-dihydrobenzo[f][1,4]oxazepin-5(2H)-one]	< 6.00
O=C(N[C@H]1CCC[C@@H](n2c(-c3ccccc3OCCO)nc3ccc(-c4nc[nH]n4)cc32)C1)c1cc(Cl)ccc1F [Example 229, 5-chloro-2-fluoro-N-((1S,3R)-3-(2-(2-(2-hydroxyethoxy)phenyl)-6-(1H-1,2,4-triazol-3-yl)-1H-benzo[d]imidazol-1-yl)cyclohex-yl)benzamide]	> 7.00
COc1ccnc(C(=O)N[C@H]2CCC[C@@H](n3c(-c4ccccc4F)nc4cnc(-c5nc[nH]n5)cc43)C2)c1 [Example 60, N-((1S,3R)-3-(2-(2-fluorophenyl)-6-(1H-1,2,4-triazol-3-yl)-1H-imidazo[4,5-c]pyridin-1-yl)cyclohexyl)-4-methoxypicolinamide]	> 7.00
CN1C[C@@H](N2Cc3ccc(F)cc3C2=O)C[C@@H](n2c(-c3ccccc3OCCO)nc3ccc(-c4ncccn4)cc32)C1 [Example 244, 6-fluoro-2-((3S,5R)-5-(2-(2-(2-hydroxyethoxy)phenyl)-6-(pyr-imidin-2-yl)-1H-benzo[d]imid-azol-1-yl)-1-methylpiperidin-3-yl)isoindolin-1-one]	6.00 to 6.30
CN1C[C@H](NC(=O)c2cc(F)ccc2F)C[C@H](n2c(-c3ccccc3OCCO)nc3cnc(-n4nccn4)cc32)C1 [Example 155, 2,5-difluoro-N-((3R,5S)-5-(2-(2-(2-hydroxyethoxy)phenyl)-6-(2H-1,2,3-triazol-2-yl)-1H-imidazo[4,5-c]pyridin-1-yl)-1-methylpiperidin-3-yl)benzamide]	> 7.00
CN1C[C@@H](NC(=O)c2cc(F)ccc2F)C[C@@H](n2c(-c3ccccc3OCCO)nc3cnc(-c4ncco4)cc32)C1 [Example 159, 2,5-difluoro-N-((3S,5R)-5-(2-(2-(2-hydroxyethoxy)phenyl)-6-(oxazol-2-yl)-1H-imidazo[4,5-c]pyridin-1-yl)-1-methylpiperidin-3-yl)benzamide]	< 6.00
O=C(N[C@H]1CCC[C@@H](n2c(-c3ncccc3OC(F)F)nc3cnc(-c4ncn[nH]4)cc32)C1)c1cc(O)ccc1Cl [compound 97]	> 7.00
N#Cc1ccccc1-c1nc2cnc(-c3nc(C(F)(F)F)co3)cc2n1[C@@H]1CCC[C@H](NC(=O)c2cc(F)ccn2)C1 [Example 99, N-((1S,3R)-3-(2-(2-cyanophenyl)-6-(4-(trifluoromethyl)oxazol-2-yl)-1H-imidazo[4,5-c]pyridin-1-yl)cyclohexyl)-4-fluoropicolinamide]	> 7.00
O=C(N[C@H]1CCC[C@@H](n2c(-c3ncccc3F)nc3ccc(-c4nc[nH]n4)cc32)[C@@H]1O)c1cc(F)ccc1F [Example 222, 2,5-difluoro-N-((1S,2R,3R)-3-(2-(3-fluoropyridin-2-yl)-6-(1H-1,2,4-triazol-3-yl)-1H-benzo[d]imidazol-1-yl)-2-hydroxycyclo-hexyl)benzamide]	6.30 to 7.00
O=C(N[C@H]1CCC[C@@H](n2c(-c3ccccc3F)nc3cnc(-c4nc[nH]n4)cc32)C1)c1cc(Cl)cnn1 [Example 17, 5-chloro-N-((1S,3R)-3-(2-(2-fluorophenyl)-6-(1H-1,2,4-triazol-3-yl)-1H-imidazo[4,5-c]pyridin-1-yl)cyclohexyl)pyridazine-3-carboxamide]	> 7.00

Now from value to compound:

pIC50	Structure (SMILES)
> 7.00	N#Cc1ccccc1-c1nc2cnc(-c3nc[nH]n3)cc2n1[C@@H]1CCC[C@H](NC(=O)c2cc(F)ccn2)C1 [Example 46, N-((1S,3R)-3-(2-(2-cyanophenyl)-6-(1H-1,2,4-triazol-3-yl)-1H-imidazo[4,5-c]pyridin-1-yl)cyclohexyl)-4-fluoropicolinamide]
> 7.00	O=C(N[C@H]1CCC[C@@H](n2c(-c3ncccc3F)nc3cnc(-c4nc[nH]n4)cc32)C1)c1cc(Cl)ccc1OC(F)F [compound 47]
> 7.00	O=C(NC1CCCCC(n2c(-c3ccccc3F)nc3cnc(-c4nc(C(F)(F)F)co4)cc32)C1O)c1cc(F)ccc1F (stereo not shown) [Example 126, 2,5-difluoro-N-(3-(2-(2-fluorophenyl)-6-(4-(trifluoromethyl)oxazol-2-yl)-1H-imidazo[4,5-c]pyridin-1-yl)-2-hydroxycycloheptyl)benzamide]
> 7.00	CC(=O)N1C[C@@H](N2Cc3ccc(F)cc3C2=O)C[C@@H](n2c(-c3ccccc3F)nc3cnc(-n4nccn4)cc32)C1 [Example 199, 2-((3S,5R)-1-acetyl-5-(2-(2-fluorophenyl)-6-(2H-1,2,3-triazol-2-yl)-1H-imidazo[4,5-c]pyridin-1-yl)piperidin-3-yl)-6-fluoroisoindolin-1-one]
< 6.00	CC(CCO)Cc1nc2cnc(-c3nc[nH]n3)cc2n1[C@@H]1CCC[C@H](NC(=O)c2cc(Cl)ccn2)C1 (stereo partly drawn) [Example 96, 4-chloro-N-((1S,3R)-3-(2-(4-hydroxy-2-methylbutyl)-6-(1H-1,2,4-triazol-3-yl)-1H-imidazo[4,5-c]pyridin-1-yl)cyclohexyl)picolinamide]
6.00 to 6.30	CN1C[C@@H](NC(=O)c2cc(F)ccn2)C[C@@H](n2c(-c3ccccc3OC(F)F)nc3cnc(-c4nc[nH]n4)cc32)C1 [compound 140]
< 6.00	CN1C[C@@H](NC(=O)c2cc(Cl)ccn2)C[C@@H](n2c(-c3ccccc3OCCO)nc3cnc(-c4ncco4)cc32)C1 [Example 160, 4-chloro-N-((3S,5R)-5-(2-(2-(2-hydroxyethoxy)phenyl)-6-(oxazol-2-yl)-1H-imidazo[4,5-c]pyridin-1-yl)-1-methylpiperidin-3-yl)picolinamide]
